PMC11901676, “Substrate Selectivities of GH78 α-L-Rhamnosidases from Human Gut Bacteria on Dietary Flavonoid Glycosides” (Molecules, 2025)

B1: BtRha78A (Bacteroides thetaiotaomicron VPI-5482) (protein)
chain: MILLGALSLASSTFAQTWIWYPGDYEIWLGNQMNNRRTERGAFFPPFWKTDSHYVVVEFSKVLNLSEPEEVFIAAEGTYNVKLDGKLQFGMPETLLLPAGKHSLNIKVWNQATPPTIYVKGKTVNSDSSWRVTYEDKEWIDESGKASDTSATIYMDAGCWNFDGATQRPSQFSLMREPQQPVAKTEQPEGGILYDFGKETFGFITLKNLSGKGKIDLYYGESPEEAKDKAYCETLDKLLLEPGQITDLAIRSTSPLHHSDNEYTLENSKAFRYVYITHEPEVQIGEVSMQYEYLPEEYRGNFRCNDEELNCIWEVGAYTMHLTTREFFIDGIKRDRWVWSGDAIQSYLMNYYLFFDSESVKRTIWLLRGKDPVTSHSNTIMDYTFYWFLSVYDYYMYSGDRHFVNQLYPRMQTMMDYVLGRTNKNGMVEGMSGDWVFVDWADGYLDKKGELSFEQVLFCRSLETMALCADLVGDKDGQQKYEKLASALKAKLEPTFWNNQKQAFVHNCVDGRQSDAVTRYANMFSVFFDYLNADKQQAIKQSVLLNDEILKITTPYMRFYELEALCALGEQETVMKEMKAYWGGMLKAGATSFWEKYNPEESGTQHLAMYGRPYGKSLCHAWGASPIYLLGKYYLGVKPTKEGYKEFAVSPVLGGLKWMEGTVPTPNGDIHVYMDNKTIKVKATEGKGYLTIQSRRQPKANMGTVEKVSEGVWRLWIDSPEERIVTYRL
notes: recombinant in E. coli BL21(DE3), Ni-NTA purified

Key:
Experiment in all cases: HPLC initial rates, Michaelis-Menten fit
HFM-RhaC = test system: T1, HFM-RhaC; type: biochemical, metagenome: human feces; settings: 50 mM sodium phosphate pH 6.0, 37 °C, 5 min
T1 construct: recombinant in E. coli BL21(DE3), Ni-NTA purified
Description: HPLC initial rates, Michaelis-Menten fit on HFM-RhaC

HFM-Rha78 = test system: T2, HFM-Rha78; type: biochemical, metagenome: human feces; settings: 50 mM sodium phosphate pH 6.5, 37 °C, 5 min
T2 construct: recombinant in E. coli BL21(DE3), Ni-NTA purified
Description: HPLC initial rates, Michaelis-Menten fit on HFM-Rha78

HFM-RhaA = test system: T3, HFM-RhaA; type: biochemical, metagenome: human feces; settings: 50 mM sodium phosphate pH 6.0, 37 °C, 5 min
T3 construct: recombinant in E. coli BL21(DE3), Ni-NTA purified; catalytic residues Glu448 (acid) and Glu715 (base); AlphaFold2 model said to be in UniProt
Description: HPLC initial rates, Michaelis-Menten fit on HFM-RhaA

[1] = substrate: COc1ccc([C@@H]2CC(=O)c3c(O)cc(O[C@@H]4O[C@H](CO[C@@H]5O[C@@H](C)[C@H](O)[C@@H](O)[C@H]5O)[C@@H](O)[C@H](O)[C@H]4O)cc3O2)cc1O; type: biochemical, Bacteroides thetaiotaomicron; settings: 50 mM sodium phosphate pH 6.5, 37 °C, 5 min
Description: (§1) HPLC initial rates, Michaelis-Menten fit on BtRha78A

[2] = substrate: C[C@@H]1O[C@@H](OC[C@H]2O[C@@H](Oc3c(-c4ccc(O)c(O)c4)oc4cc(O)cc(O)c4c3=O)[C@H](O)[C@@H](O)[C@@H]2O)[C@H](O)[C@H](O)[C@H]1O; type: biochemical, Bacteroides thetaiotaomicron; settings: 50 mM sodium phosphate pH 6.5, 37 °C, 5 min
Description: as §1

Molecule	Km (HFM-RhaC) [µM]	Km (HFM-Rha78) [µM]	Km (HFM-RhaA) [µM]	further results
COc1ccc([C@@H]2CC(=O)c3c(O)cc(O[C@@H]4O[C@H](CO[C@@H]5O[C@@H](C)[C@H](O)[C@@H](O)[C@H]5O)[C@@H](O)[C@H](O)[C@H]4O)cc3O2)cc1O [Hesperidin]	2160	–	–	–
C[C@@H]1O[C@@H](O[C@H]2[C@H](Oc3cc(O)c4c(c3)O[C@H](c3ccc(O)cc3)CC4=O)O[C@H](CO)[C@@H](O)[C@@H]2O)[C@H](O)[C@H](O)[C@H]1O [Naringin]	2290	5970	1920	–
COc1ccc([C@@H]2CC(=O)c3c(O)cc(O[C@@H]4O[C@H](CO)[C@@H](O)[C@H](O)[C@H]4O[C@@H]4O[C@@H](C)[C@H](O)[C@@H](O)[C@H]4O)cc3O2)cc1O [Neohesperidin]	3250	3970	530	–
C[C@@H]1O[C@@H](OC[C@H]2O[C@@H](Oc3c(-c4ccc(O)c(O)c4)oc4cc(O)cc(O)c4c3=O)[C@H](O)[C@@H](O)[C@@H]2O)[C@H](O)[C@H](O)[C@H]1O [Rutin]	5050	–	1240	–
B1	–	–	–	Km [1]: 2780 µM; kcat [1]: 8.73 s⁻¹; kcat/Km [1]: 3140 M⁻¹ s⁻¹; Km [2]: 2380 µM; kcat [2]: 0.47 s⁻¹; kcat/Km [2]: 200 M⁻¹ s⁻¹
